Assay results as given in ChEMBL document CHEMBL1914371, “Development of a bivalent dopamine D₂ receptor agonist” (J Med Chem, 2011).

Legend:
[1] = target: T1, D(4) dopamine receptor (Homo sapiens, UniProt P21917); assay: Displacement of [3H]spiperone from human dopamine D4.4 receptor expressed in chinese hamster CHO cells by radioligand binding assay; assay type: cell-based
T1 sequence (P21917 whole entry): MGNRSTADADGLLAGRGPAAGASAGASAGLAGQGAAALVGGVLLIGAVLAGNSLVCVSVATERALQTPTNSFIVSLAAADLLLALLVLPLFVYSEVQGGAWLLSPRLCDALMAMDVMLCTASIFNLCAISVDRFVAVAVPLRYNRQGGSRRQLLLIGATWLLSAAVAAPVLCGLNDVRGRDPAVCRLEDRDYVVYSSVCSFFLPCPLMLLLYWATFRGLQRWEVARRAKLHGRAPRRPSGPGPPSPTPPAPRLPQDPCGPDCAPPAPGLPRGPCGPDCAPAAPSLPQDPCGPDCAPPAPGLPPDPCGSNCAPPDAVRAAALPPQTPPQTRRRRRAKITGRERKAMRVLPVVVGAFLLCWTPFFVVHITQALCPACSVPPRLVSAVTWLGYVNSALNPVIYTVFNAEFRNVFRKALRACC

[2] = target: T2, D(2) dopamine receptor (Homo sapiens, UniProt P14416); assay: Displacement of [3H]spiperone from human DRD2 Long receptor expressed in chinese hamster CHO cells by radioligand binding assay; assay type: cell-based
[3] = target: D(3) dopamine receptor (Homo sapiens, UniProt P35462); assay: Displacement of [3H]spiperone from human dopamine D3 receptor expressed in chinese hamster CHO cells by radioligand binding assay; assay type: cell-based
[4] = target: T2, D(2) dopamine receptor; assay: Displacement of [3H]spiperone from human DRD2 short receptor expressed in chinese hamster CHO cells by radioligand binding assay; assay type: cell-based
[5] = target: D(1A) dopamine receptor (Sus scrofa, UniProt P50130); assay: Displacement of [3H]SCH 23390 from pig dopamine D1 receptor in striatal membrane; assay type: cell membranes, Striatum
[6] = target: T2, D(2) dopamine receptor; assay: Agonist activity at DRD2 Long receptor expressed in CHO cells assessed as inhibition of forskolin-stimulated cAMP accumulation by bioluminescence assay; assay type: functional, cell-based
[7] = target: T2, D(2) dopamine receptor; assay: Partial agonist activity at DRD2 Long receptor expressed in CHO cells assessed as inhibition of forskolin-stimulated cAMP accumulation by bioluminescence assay relative to quinpirole; assay type: functional, cell-based
[8] = target: T2, D(2) dopamine receptor; assay: Partial agonist activity at DRD2 Long receptor expressed in CHO cells assessed as inhibition of forskolin-stimulated cAMP accumulation by bioluminescence assay; assay type: functional, cell-based
[9] = target: T2, D(2) dopamine receptor; assay: Antagonist activity at DRD2 Long receptor expressed in CHO cells assessed as […] of forskolin-stimulated cAMP accumulation by bioluminescence assay relative to quinpirole; assay type: functional, cell-based

T2 sequence (P14416 whole entry): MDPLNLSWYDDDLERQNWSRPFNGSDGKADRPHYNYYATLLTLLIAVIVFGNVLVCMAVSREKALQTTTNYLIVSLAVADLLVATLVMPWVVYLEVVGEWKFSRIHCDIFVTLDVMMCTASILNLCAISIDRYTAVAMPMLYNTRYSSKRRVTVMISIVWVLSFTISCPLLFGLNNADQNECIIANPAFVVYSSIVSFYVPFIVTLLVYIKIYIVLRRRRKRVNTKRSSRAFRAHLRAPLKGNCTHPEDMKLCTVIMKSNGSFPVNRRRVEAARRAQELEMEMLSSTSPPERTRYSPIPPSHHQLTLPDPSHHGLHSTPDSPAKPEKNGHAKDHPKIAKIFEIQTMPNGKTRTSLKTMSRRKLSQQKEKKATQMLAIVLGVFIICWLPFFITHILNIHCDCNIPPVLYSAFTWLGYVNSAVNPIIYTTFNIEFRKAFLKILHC
Chain of D(3) dopamine receptor (P35462 whole entry): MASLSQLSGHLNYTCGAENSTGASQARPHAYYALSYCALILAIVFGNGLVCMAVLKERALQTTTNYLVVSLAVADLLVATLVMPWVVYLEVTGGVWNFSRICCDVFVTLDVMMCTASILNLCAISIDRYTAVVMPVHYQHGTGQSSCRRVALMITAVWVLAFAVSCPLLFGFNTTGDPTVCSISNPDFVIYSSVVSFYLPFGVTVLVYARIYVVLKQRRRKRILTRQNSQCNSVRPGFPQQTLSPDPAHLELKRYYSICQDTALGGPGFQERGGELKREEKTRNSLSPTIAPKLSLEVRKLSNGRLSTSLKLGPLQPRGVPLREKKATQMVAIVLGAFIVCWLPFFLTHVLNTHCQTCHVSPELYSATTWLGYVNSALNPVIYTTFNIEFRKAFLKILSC
Chain of D(1A) dopamine receptor (P50130 whole entry): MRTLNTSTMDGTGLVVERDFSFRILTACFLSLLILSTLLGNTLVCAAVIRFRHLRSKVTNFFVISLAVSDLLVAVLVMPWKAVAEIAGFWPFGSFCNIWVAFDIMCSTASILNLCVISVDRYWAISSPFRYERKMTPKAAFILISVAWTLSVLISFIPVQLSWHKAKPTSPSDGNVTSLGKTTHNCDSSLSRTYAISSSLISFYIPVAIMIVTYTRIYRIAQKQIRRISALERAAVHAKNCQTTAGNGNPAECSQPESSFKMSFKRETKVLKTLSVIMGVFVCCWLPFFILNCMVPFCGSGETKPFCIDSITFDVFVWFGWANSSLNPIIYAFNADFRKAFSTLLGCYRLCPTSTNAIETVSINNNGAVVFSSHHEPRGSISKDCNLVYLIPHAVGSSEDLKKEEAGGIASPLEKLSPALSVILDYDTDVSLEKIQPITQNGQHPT

Row | SMILES | Ki [1] [µM] | Ki [2] [µM] | Ki [3] [µM] | Ki [4] [µM] | Ki [5] [µM] | EC50 [6] [µM] | Efficacy [7] [%] | EC50 [8] [µM] | Efficacy [9] [%]
1 | CCCCn1cc(CCCOc2ccc(C(=O)NCCCCN3CCN(c4ccccc4OC)CC3)cc2OC)nn1 | 0.084 | 0.017 | 0.002 | 0.012 | 1.2 | – | – | – | –
2 | CCCN(CCCCNC(=O)c1ccc(OCCCc2cn(CCCCCCCCn3cc(CCCOc4ccc(C(=O)NCCCCN(CCC)C5Cc6ccccc6C5)cc4OC)nn3)nn2)c(OC)c1)C1Cc2ccccc2C1 | 0.034 | 0.016 | 0.0018 | 0.016 | 0.51 | 0.44 | – | – | –
3 | CCCCn1cc(CCCOc2ccc(C(=O)NCCCCN(CCC)C3Cc4ccccc4C3)cc2OC)nn1 | 0.042 | 0.012 | 0.00071 | 0.0041 | 6 | 0.013 | – | – | –
4 | CCCN(CCCCNC(=O)c1ccc(OCCCc2cn(CCCCCCCCn3cc(CCCOc4ccc(CN5CCN(c6ccccc6OC)CC5)cc4OC)nn3)nn2)c(OC)c1)C1Cc2ccccc2C1 | 0.022 | 0.014 | 0.0012 | 0.0088 | 0.33 | – | 13 | 0.38 | –
5 | CCCN(CCCCNC(=O)c1ccc(OCCCc2cn(CCCCCCCCn3cc(CCCOc4ccc(C(=O)NCCCCN5CCN(c6ccccc6OC)CC5)cc4OC)nn3)nn2)c(OC)c1)C1Cc2ccccc2C1 | 0.04 | 0.025 | 0.002 | 0.017 | 0.2 | – | – | – | < 3
6 | COc1cc(C(=O)NCCCCN2CCN(c3ccccc3OC)CC2)ccc1OCCCc1cn(CCCCCCCCn2cc(CCCOc3ccc(C(=O)NCCCCN4CCN(c5ccccc5OC)CC4)cc3OC)nn2)nn1 | 0.66 | 0.11 | 0.012 | 0.11 | 2.8 | – | – | – | –
